Experimental data reported in patent US7304129B2 (Imperial Innovations Limited, priority 2000, dated 2007).
“And” between values parts separate entries of the source, which are not always exact repeats. Equal entries are not always repeated. “Also recorded” adds a separate entry of the source. Positions of bridges follow the written chain, without caps; N, C: chain ends. Chains are numbered I, II in the order given. No end group written: not given here.

Experiments:
[1] = test system: rat cerebellar granule neurons cultured on monolayers of NIH 3T3 fibroblasts; assay: in vitro neurite outgrowth co-culture assay (axon regeneration); type: cell-based; conditions: for stimulation of neurite outgrowth (in words): agent included in coculture medium, 16 hour culture; for peptide concentration giving maximal effects in neurite outgrowth assay: rat cerebellar neurons on 3T3 monolayer, 16 hours
Procedure: An example of such an assay is a co-culture assay in which neurons are cultured on top of cellular monolayers for 16 hours, before being fixed and stained with a neuron-specific antibody. The mean length of the longest neurite per cell can then be determined by fluorescence microscopy using an appropriate image analysis programme. The neurons may be, for example, (in this case cerebellar granule cell neurons, hippocampal, dorsal root ganglion, olfactory, motor or dopaminergic neurons. The cellular monolayer is, for example NIH 3T3 fibroblasts.
Monolayers of NIH 3T3 fibroblasts were established by seeding 80,000 cells per well in Lab-Tek 8-chamber slides previously coated sequentially with poly-L-lysine and fibronectin and culturing them overnight in DMEM+10% FCS growth medium.
Cerebellum was dissected from post-natal day 2-4 rat pups and the meninges and extraneous tissue discarded. Cerebellum was chopped into small pieces and trypsinised for 10 minutes at 37° C. Trypsin was neutralised using growth medium and the cells pelletted at 1000×g for 7 minutes. Cerebellar neurons were then resuspended in SATO growth medium containing 2% FCS, counted, and plated on top of the fibroblast monolayer at a density of 1,500 neurons per well. After 16 hours, cocultures were fixed with 4% para-formaldehyde and stained with an anti-GAP43 neuron-specific antibody, which was a gift from Dr Graham Wilkin, Imperial College Department of Biochemistry, London, but any other neuron-specific marker can be used.
The mean neurite length of 150-200 neurons per well was determined using a fluorescent microscope and Zeiss KS300 imaging software.
Peptides A, A(d), B, C, D, E, and F were each incorporated in the SATO medium at a range of concentrations from 0 to 200 μg/ml. Nerve growth factor (NGF) and fibroblast growth factor (FGF2) were used as controls at the same range of concentrations.

[2] = test system: cerebellar neurones expressing a dominant-negative form of FGF receptors; assay: neurite outgrowth of cerebellar neurones from transgenic mice expressing dominant-negative FGF receptors; type: cell-based; conditions: neurons unable to signal through the FGF receptor; listed as Ac-DRVEPYSSTA-amide
NIH 3T3 fibroblasts = assay: survival of 3T3 fibroblasts in serum-free DMEM (MTS and morphologic method, Example 5a); type: cell-based
Procedure: NIH 3T3 fibroblasts were plated in each well of a 96-well microtitre plate at a density of 7,000 cells per well in DMEM containing 3% FCS and left to attach overnight. The following day the growth medium was removed and replaced with 0.1 ml DMEM supplemented with FGF or Peptide A(d) or both, eight wells for each condition. The negative control was DMEM alone (maximal cell death) and the positive control was supplementation with 0.5% FCS (maximal cell survival).
Six days later (seven days from first plating the cells), the relative number of living cells in each well was assessed by adding the mitochondrial substrate MTS, [3-(4,5-dmethylthiazol-2-yl)-5-(3-carboxymethoxyphenyl)-2-(4-sulphophenyl)-2H-tetrazolium, inner salt), for four hours before reading the optical density on a microtitre plate reader at a wavelength of 490 nm. The optical density gives a measure of the number of respiring cells present in each well at the end of the assay period.
In addition to the biochemical assay, survival was assessed qualitatively using a morphologic method in which cells were plated in 8-chamber Lab Tek slides in DbEM alone (negative control), or DMEM supplemented with 0.5 ng/ml FGF2; 0.5% FCS (positive control), or 25-200 μg/ml Peptide A(d). After three days the cells were fixed with 4% paraformaldehyde, permeablised with methanol and stained with TRITC-conjugated falloidin to visualise the cell cytoskeleton.

cerebellar neurons = assay: survival of neurons (Example 5b); type: cell-based
NIH 3T3 cells [3] = assay: NIH 3T3 cell survival MTS assay in serum-free DMEM (Example 6); type: cell-based
Procedure: NIH 3T3 cells are plated in 96-well plates at a density of 5,500 cells/well in 100 μl DMEM containing 0.5% FCS. After 24 hours, this medium is aspirated from the wells and replaced with 100 μl serum-free DMEM alone, or supplemented with 0.5% FCS (positive control), or a single potential survival factor, with four identical wells set up for each condition. The cells are left for up to seven days at 37 degrees and 8% CO2 before the cell survival is determined using an MTS assay. In this assay 20 μl of MTS substrate is added to each 100 μl well and the plate left in the incubator for up to four hours. Respiring cells produce a coloured reaction product that can be read using a spectrophotometer at 490 nm. […] The mean absorbance at 490 nm+/−SEM is determined for the four identically set up wells. Wells containing a known survival factor such as insulin will contain more living cells after three days than cells cultured in unsupplemented medium.

L6 cell line = assay: survival of L6 cell line lacking FGF receptors; type: cell-based; conditions: FGF2 0.1, 1 and 10 ng/ml; Peptide A(d) 100 and 400 μg/ml
Procedure: FIG. 2d compares the effects of DMEM, FCS, FGF2 at 0.1, 1 and 10 ng/ml, insulin at 0.5 and 5 μg/ml, and Peptide A(d) at 100 and 400 μg/ml.

MAP kinase = assay: Western blot for tyrosine phosphorylated MAP kinase in NIH 3T3 cells; type: cell-based; conditions: peptide 400 μg/ml, 10 minutes
Procedure: A Western blot (FIG. 2f) was obtained as follows: one million NIH 3T3 cells were serum starved for 24 hours then challenged with the following agents: DMEM, 10% FCS, 0.1 ng/ml FGF2, 1 ng/ml FGF2, 10 ng/ml FGF2, 5 μg/ml insulin, 400 μg/ml peptide 52 for 10 minutes at 37 degrees Celsius before being lysed in sample buffer and band separated by PAGE. Proteins were transferred to PVDF membranes and probed with an antibody that recognises tyrosine phosphorylated MAP kinse (upper panel).

NIH 3T3 cells [4] = assay: NIH 3T3 survival and morphology, TRITC-conjugated phalloidin staining; type: cell-based; conditions: three days; insulin 0.5 pg/ml, FGF2 0.1 ng/ml, Peptide A(d) 10 ng/ml
[5] = test system: Oligodendrocyte progenitors (O4 positive); type: cell-based, rat; conditions: six days in culture
Source text: Oligodendrocyte progenitors (O4 positive) are purified from postnatal day 4 rat cerebral cortex. First a trypsinised preparation of cortical cells is dissociated to single cell suspension and pre-plated to remove unwanted adherent cells such as microglia and macrophages. Oligodendrocyte progenitors express the O4 antigen, and can be purified by panning on petri-dishes coated with anti O4 antibodies. Unbound cells are removed by gentle washing, then O4 positive cells are removed by triturating them off the plate with DMEM containing 1% FCS, through a flame-polished pasteur pipette. O4 positive cells are plated on polyornithine-coated glass coverslips at a density of 500,000 cells per well in minimal growth medium containing insulin or the peptide Ac-DRVEPYSSTA[lys]2[lys] i.e. [{Ac-DRVEPYSSTA}2-K]2-K-OH, Peptide A(d), for six days, before being fixed and stained with the anti O4 antibody. Viable O4 positive cells are counted for each condition

[6] = test system: cells growing in the presence of FGF2 or Peptide A(d); assay: mitogenesis by observation of cells growing (rounding-up, cell number); type: cell-based
Source text: FGF stimulates axonal regeneration, cell survival and mitogenesis. […] This can be seen by the failure of Peptide A(d)-treated cells to show the rounding-up characteristic of cell division, and there is not the increase in cell number observed in the presence of a mitogenic stimulation by FGF2.

NIH3T3 cells = assay: cell survival/proliferation at two plating densities; conditions: 11,000 cells per well; FGF2 10 ng/ml
Source text: FGF2 is a mitogen for a range of cells, including NIH3T3 cells.

[7] = test system: cells in S phase (bromodeoxyuridine incorporation into DNA); assay: bromodeoxyuridine incorporation (entry into S phase) mitogenicity assay; type: cell-based; conditions: peptide, any of the concentrations tested
Procedure: The mitogenicity of an agent can be determined by testing its ability to stimulate entry of cells into ‘S’ phase in readiness for cell division. This is done by standard methodology and involves incubating cells in the presence of a potential mitogen in DMEM supplemented with bromodeoxyuridine. After six hours the cells are fixed and stained with an antibody recognising bromodeoxyuridine. Cells in S phase can be distinguished by their incorporation of bromodeoxyuridine into DNA.

“Acetyl-DRVEPYSSTA-amide (Ac-DRVEPYSSTA-NH2) [Peptide A]” was tested, and the “stimulation of neurite outgrowth (in words)” value [1] was “full activity was retained”, the “effect on neurite outgrowth stimulated by FGF2” value ([1]; peptide at low concentration (25 μM), listed as Ac-DRVEPYSSTA-amide) was “inhibits neurite outgrowth stimulated by FGF2” and the “peptide concentration giving maximal effects in neurite outgrowth assay” value [1] was 100-200 μg/ml and 100-200 μM. For the same substance, the “neurite extension in response to the peptide” value [2] was “unable to extend neurites; also recorded: not able to extend neurites”.

With “I: Ac-DRVEPYSSTAKK / II: Ac-DRVEPYSSTAK / III: Ac-DRVEPYSSTA / IV: Ac-DRVEPYSSTA (amide I:11-IV:C, I:12-II:C, II:11-III:C) [Peptide A(d), [{Ac-DRVEPYSSTA}2-K]2-K-OH]” the “concentration stimulating maximal neurite outgrowth” value [1] was 400 nM, the “stimulation of neurite outgrowth (in words)” value [1] was “bi-phasic dose-response curve” and the “peptide concentration giving maximal effects in neurite outgrowth assay” value [1] was 1.5-2.5 μg/ml and ~0.4 μM. For the same substance, the “potency in stimulating neurite outgrowth relative to the monomeric peptide” value ([1]; versus monomeric peptide) was 250 times, the “cell survival with combination” value (NIH 3T3 fibroblasts; DMEM supplemented with Peptide A(d) together with FGF2) was “greater than with either agent alone” and the “survival of 3T3 fibroblasts” value (NIH 3T3 fibroblasts; Peptide A(d) alone at 25 μg/ml) was “stimulated the survival of 3T3 fibroblasts to the same extent as 0.125 ng/ml FGF2”. The “stimulation of survival compared with positive control 0.5% FCS” value (NIH 3T3 fibroblasts; all concentrations (25-200 μg/ml)) was “at least as good as the positive control”, the “survival of cerebellar neurons” value (cerebellar neurons) was “stimulate survival of cerebellar neurons” and the “survival of NIH3T3 cells in serum-free conditions (in words)” value (NIH 3T3 cells [3]; FGF2 only at low concentrations) was “stimulates dose-dependent survival”. For the same substance, the “time over which survival is stimulated in serum-free conditions” value (NIH 3T3 cells [3]; maximum time tested) was “at least seven days”, the “survival of L6 cell line” value (L6 cell line) was “unable to stimulate the survival” and the MAP kinase activation (MAP kinase) was “do not”. The MAP kinase activation (MAP kinase; listed as Ac-DRVEPYSSTA[lys]2[lys]) was “do not”, the MAP kinase activation (MAP kinase; listed as peptide 52) was “did not” and the “cell survival / morphology” value (NIH 3T3 cells [4]) was “stimulate cell survival”. The “oligodendrocyte survival (in words)” value [5] was “dose-dependent survival effect”, the “mitogenesis (observation of cells)” value [6] was “does not stimulate mitogenesis” and the cell proliferation (NIH3T3 cells) was “does not stimulate proliferation”. For the same substance, the “mitogenicity (entry into S phase)” value [7] was “unable to stimulate entry into S phase; also recorded: not mitogenic at any of the concentrations tested”.
